{"source": "patent US7125862B2", "about": "“Porphyrin-metal complexes and oxygen infusions containing the same” (Japan Science and Technology Agency, priority 2001, dated 2006)", "assay": "Oxygen adsorption-desorption and oxygen affinity (P1/2) of the porphinatoiron(II) complex in toluene solution, by visible absorption spectrum", "type": "binding", "experimental": "46.2 μg (0.03 μmol) of 2-8-(2-methyl-1-imidazolyl)octanoyloxymethyl-5,10,15,20-tetrakis(α,α,α,α-o-(1-methylcyclohexylamido)phenyl)porphinatoiron(III) complex-bromide synthesized in Example 7 was prepare into 10 ml of toluene anhydride solution and the atmosphere in the system was replaced with nitrogen. Then, the solution was mixed and stirred for 2 hours with an aqueous dithionous acid solution in a heterogeneous system to reduce the iron to the iron(II) state. Under nitrogen atmosphere, the toluene layer was extracted, dried over sodium sulfate anhydride and filtrated. The resulting toluene solution was transferred to and sealed in a measuring cell. Thus, a toluene solution of 2-8-(2-methyl-1-imidazolyl)octanoyloxymethyl-5,10,15,20-tetrakis(α,α,α,α-o-(1-methylcyclohexylamido)phenyl)porphinatoiron(II) complex was obtained. The visible absorption spectrum of this solution was λmax: 441, 539, 558 nm, and corresponded to that of a five-coordinated deoxy-type complex in which one imidazole was coordinated.\nWhen oxygen gas was blown into this solution, the spectrum immediately changed to λmax: 424, 552 nm.\nConsequently, the adsorption-desorption of oxygen could be continuously carried out by repeating the operation of blowing oxygen and then nitrogen."}
{"substance": "2-8-(2-methyl-1-imidazolyl)octanoyloxymethyl-5,10,15,20-tetrakis(α,α,α,α-o-(1-methylcyclohexylamido)phenyl)porphinatoiron(II) complex [Example 11]", "values": [{"measurement": "oxygen affinity (partial pressure of oxygen when 50% of the entire porphinatoiron is oxygenated (=P1/2))", "setting": "25° C.", "value": 20, "unit": "torr"}, {"measurement": "reversibility of adsorption-desorption of oxygen", "setting": "oxygen blown, then nitrogen gas for 1 minute, visible absorption spectrum", "value": "adsorption-desorption of oxygen occurred reversibly"}]}
